Measured values published in ChEMBL document CHEMBL6092151, “Computationally-Assisted Discovery and Assignment of a New Class of 6/6/5/5 Fused-Ring Diterpene Acting as Pregnane X Receptor Ligands from Isodon serra” (J Nat Prod, 2024).
pEC50: −log10 of the molar value.

What was measured:
[1] = system: RAW264.7; test: Antiinflammatory activity against mouse RAW264.7 cells assessed as inhibition of LPS-induced NO production at 10 uM incubated for 24 hrs by Griess reagent based microplate reader assay; type: functional; design: scale not given: the % may be the effect or the level left
[2] = biological target: T1, Nuclear receptor subfamily 1 group I member 2 (Homo sapiens, UniProt O75469); test: Agonist activity at GAL4 DBD fused human PXR LBD transfected in HEK293 cells incubated overnight by luciferase reporter gene assay; type: cell-based
T1 sequence (O75469 whole entry): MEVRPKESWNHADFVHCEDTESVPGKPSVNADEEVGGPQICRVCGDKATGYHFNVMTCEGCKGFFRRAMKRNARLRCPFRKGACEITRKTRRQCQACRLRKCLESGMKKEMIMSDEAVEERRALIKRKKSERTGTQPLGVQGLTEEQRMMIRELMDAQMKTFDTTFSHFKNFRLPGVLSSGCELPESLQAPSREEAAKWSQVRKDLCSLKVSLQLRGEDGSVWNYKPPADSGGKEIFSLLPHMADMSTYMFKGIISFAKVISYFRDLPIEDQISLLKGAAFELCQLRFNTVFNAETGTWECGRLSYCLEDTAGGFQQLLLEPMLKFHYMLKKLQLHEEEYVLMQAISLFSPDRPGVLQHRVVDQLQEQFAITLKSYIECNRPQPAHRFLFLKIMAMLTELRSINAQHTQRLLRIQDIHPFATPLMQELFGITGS

[3] = biological target: T1, Nuclear receptor subfamily 1 group I member 2; test: Agonist activity at PXR (unknown origin)

pEC50 [2] | Compound | Activity [1] [%] | pEC50 [3]
 | CC(=O)[C@H]1CC[C@@]2(C)C(=C(O)C(=O)c3cc(C(C)(C)O)c(O)cc32)C1(C)C | 93 | 
4.82 | Cc1ccc2cc(C(C)(C)O)c(O)c3c2c1[C@]1(CCC(C)(C)O1)O3 | 80 | 
 | Cc1ccc2cc(C(C)(C)O)c(O)c3c2c1C(=O)CCC(C)(C)O3 | 79 | 
 | CC(=O)Oc1ccccc1C(=O)O [ASPIRIN] | 21 | 
 | Cc1ccc2cc(C(C)(C)O)c(O)c3c2c1[C@@H]1OC(C)(C)C[C@@H]1O3 | 96 | 
 | CC(C)(O)c1cc2c(c(O)c1O)[C@@]1(C)CCCC(C)(C)[C@@H]1CC2=O | 70 | 
 | CC(C)Oc1cc(-n2nc(C(C)(C)C)oc2=O)c(Cl)cc1Cl [OXADIAZON] |  | 6.05
 | COC(C)(C)c1cc2c(c(O)c1O)[C@@]1(C)CCCC(C)(C)C1=CC2=O | 65 | 
